Blank lines part the entries; values can stand above or below the molecule they belong to.
How the values were obtained:
[1] = molecular target: T1, human CXCR2 (U937-huCXCR2 cells) (Homo sapiens, UniProt P25025); experiment: U937-huCXCR2 FLIPR activity of human CXCL8 wild type and mutants; type: cell-based; settings: CXCL8 variant as ligand on U937-huCXCR2 cells
T1 construct: expressed in transfected cells; host or cells: U937 monocytic cell line, retrovirally transduced
T1 sequence (P25025 1-360): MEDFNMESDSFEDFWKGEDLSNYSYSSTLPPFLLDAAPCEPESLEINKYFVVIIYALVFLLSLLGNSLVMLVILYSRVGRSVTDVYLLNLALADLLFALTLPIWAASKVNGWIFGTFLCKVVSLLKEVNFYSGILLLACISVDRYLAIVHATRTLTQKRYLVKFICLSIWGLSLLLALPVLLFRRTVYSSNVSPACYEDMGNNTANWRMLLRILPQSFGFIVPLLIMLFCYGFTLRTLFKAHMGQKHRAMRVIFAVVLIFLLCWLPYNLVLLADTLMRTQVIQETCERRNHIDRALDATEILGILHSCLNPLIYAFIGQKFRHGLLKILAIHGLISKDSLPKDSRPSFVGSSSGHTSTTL
Description: Wild type and mutant human CXCL8 are tested for biologic activity and for neutralization by Antibody 1 using the U937-huCXCR2 assay. U937-huCXCR2 is a monocytic cell line transduced with retrovirus for expression of human CXCR2. A description of the U937-huCXCR2 assay is found below under Neutralizing Assays.
CXCL8 mutants are serially diluted in Assay Buffer containing 0.2% BSA in wells of v-bottom 96-well polypropylene plates. Ligand concentrations are 3 times the final assay concentration (final assay concentrations range from 300 to 0.0051 nM). A cell plate and a ligand plate are loaded into a Fluorescent Imaging Plate Reader (FLIPR-3, Molecular Devices) programmed to transfer 50 μL of ligand to wells of the cell plate. Fluorescence is recorded at 1 second intervals for 90 seconds. The change in fluorescence [delta relative fluorescence units (DRFU), Max RFU-Min RFU] is calculated from images 10 to 90. DRFU versus log (ligand concentration) is plotted and EC50 values are determined by nonlinear regression using Graph Pad Prism. Assays are performed in triplicate over three assay plates.

[2] = test system: SKOV3-Luc ovarian cancer cells; experiment: SKOV3-Luc ovarian cancer xenograft model; type: in vivo, athymic nude female mice
Description: SKOV3-Luc is a human ovary cancer cell line that expresses firefly luciferase gene. SKOV3-Luc cells are often used in vivo to establish human ovarian adenocarcinoma tumor growth.
SKOV3-Luc ovarian cancer cells were mixed 1:1 with matrigel and implanted subcutaneously in the right rear flank of athymic nude female mice at 3.0×10^6 cells per injection. Mice were randomized into 4 groups at baseline according to tumor volume after the xenografts were grown to an average tumor volume of 200 mm^3. Mice received either control IgG4 antibody (2.5 mg/kg once a week), cisplatin (2.5 mg/kg once a week), Antibody 1 (20 mg/kg once a week), or a combination of cisplatin (2.5 mg/kg once a week) and Antibody 1 (20 mg/kg once a week) by intraperitoneal injection.

U937 FLIPR activity EC50 [1]: Not Active
Molecule: I40A: human CXCL8 point mutant I40A based on SEQ ID NO: 27 [Antibody I40A]

U937 FLIPR activity EC50 [1]: Not Active
Molecule: R6A: human CXCL8 point mutant R6A based on SEQ ID NO: 27 [Antibody R6A]

Molecule: N.N.[Cl][Pt][Cl] [Cisplatin, cisplatin]
Average Tumor Volume ([2]; Day 14): 122.65 mm^3
Average Tumor Volume ([2]; Day 19): 190.65 mm^3
Average Tumor Volume ([2]; Day 22): 289.15 mm^3
Average Tumor Volume ([2]; Day 26): 484.72 mm^3
Average Tumor Volume ([2]; Day 32): 806.31 mm^3
Average Tumor Volume ([2]; Day 35): 923.02 mm^3
Average Tumor Volume ([2]; Day 40): 941.42 mm^3
Average Tumor Volume ([2]; Day 43): 1047.34 mm^3
tumor growth inhibition ([2]; compared to isotype control, intraperitoneal, once a week): did not show statistically significant tumor growth inhibition

U937 FLIPR activity EC50 [1]: Not Active
Molecule: I10A: human CXCL8 point mutant I10A based on SEQ ID NO: 27 [Antibody I10A]

— patent US10858425B2, “Pan-ELR+ CXC chemokine antibodies” (Eli Lilly and Company, priority 2013, dated 2020)
